From US10894798B2, “Substituted dihydropyrrolopyrazole derivative” (UBE INDUSTRIES, LTD., priority 2015, dated 2021)
Like-named read-outs stand apart in the source and are kept apart here.

What was measured:
CDK2 = biological target: T1, CDK2 (Homo sapiens, UniProt P24941); assay: CDK2 enzyme inhibition test; assay type: biochemical; settings: [γ-33P]ATP, MBP substrate; Ki=IC50/(1+S/Km); read-out: Ki value of CDK2 inhibitory activity
T1 construct: purchased Invitrogen Corp. PV3267
Method in brief: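 Commercial CDK2 phosphorylated MBP with [γ-33P]ATP (500 μM solution before mixing) in HEPES pH 7.4 buffer with DTT, Triton X-100 and MgCl2 for 20 min at 30 °C. TCA-precipitated 33P-MBP was counted by scintillation to give the IC50. Ki = IC50/(1+S/Km), with S the ATP concentration in the reaction.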

[1] = system: human large intestine cancer cell line (HCT-116); assay: Human large intestine cancer (HCT-116) cell growth inhibition test; assay type: cell-based
Method in brief: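 HCT-116 cells were seeded at 0.5 to 2.0×10^3 cells/well in McCoy's 5A with 10% FBS and dosed with compound at 0.1% final DMSO after overnight culture. Growth was measured by sulforhodamine B absorbance after 3 days. GI50 was calculated from the inhibition rate at each concentration.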

IL-17 production = assay: Human PBMC various-stimulant cocktail-induced IL-17 production inhibition test; assay type: cell-based; settings: 120 h, human T-cell suspension from PBMC, culture for 5 days, ELISA
Excerpt: PBMC was separated and collected by using Ficoll-Paque (manufactured by GE Healthcare Japan Corp.) from blood collected from a healthy human adult in the presence of heparin. The collected PBMC was further cultured in a flask for a certain time, and then, non-adherent cells in the supernatant were collected and used as a T-cell suspension.
A RPMI1640 medium containing 10% FBS, 1% penicillin/streptomycin/amphotericin B, essential amino acids, and pyruvic acid and containing a test compound dissolved in DMSO, a human CD28 antibody, a human IFN-γ antibody, a human IL-4 antibody, human IL-6, human IL-23, human IL-1β, and human TGF-β was added at 100 μL/well to T cell Activation Plate Anti-Human CD3 96-well plate. Subsequently, 100 μL of a T-cell suspension adjusted to 2×10^5 cells/mL was added to each well (final DMSO concentration: 0.1%). Only DMSO was added to wells not supplemented with the test compound. After culture for 5 days in a carbon dioxide incubator, the culture supernatant was collected and stored at −20° C. until IL-17 content measurement.
In the measurement of an IL-17 content in the culture supernatant, a sandwich ELISA kit (Quantikine Human IL-17, manufactured by R&D Systems, Inc.) was used. The IL-17 content of each sample was calculated from the calibration curve of Standard IL-17 included in the kit. […] The concentration of the test compound necessary for inhibiting 50% of IL-17 production (IC50 value) was calculated from the concentration of the added test compound and the rate of inhibition of IL-17 production by the test compound by using EXSUS (version 8.1.0, manufactured by CAC Exicare Corp.).

[2] = HCT-116 (row of Table 50), read-out: GI50 value (concentration necessary for inhibiting 50% of cell growth)
[3] = HCT-116, 72 h, culture for 3 days, sulforhodamine B, read-out: GI50 value, HCT-116 cell growth inhibition

| SMILES | Ki (CDK2) [nM] | GI50 [1, 2] [nM] | GI50 [1, 3] [nM] | IC50 (IL-17 production) [nM] |
| --- | --- | --- | --- | --- |
| CC1(C)c2[nH]nc(NC(=O)C3([Si](C)(C)C)CCC3)c2CN1C(=O)Nc1c(F)cccc1Cl [IV-113, N-(2-Chloro-6-fluorophenyl)-6,6-dimethyl-3-[1-(trimethylsilyl)cyclobutanecarboxamido]-4,6-dihydropyrrolo[3,4-c]pyrazole-5(1H)-carboxamide] | ≥ 1000 | – | ≤ 100 | – |
| CC1(C)c2[nH]nc(NC(=O)C3([Si](C)(C)C)CCC3)c2CN1C(=O)Nc1c(F)cccc1OC(F)F [IV-169, N-[2-(Difluoromethoxy)-6-fluorophenyl]-6,6-dimethyl-3-[1-(trimethylsilyl)cyclobutanecarboxamido]-4,6-dihydropyrrolo[3,4-c]pyrazole-5(1H)-carboxamide] | ≥ 1000 | – | ≤ 100 | – |
| CC1(C)c2[nH]nc(NC(=O)C3([Si](C)(C)C)CCC3)c2CN1C(=O)Nc1c(Cl)cccc1Cl [IV-199, N-(2,6-Dichlorophenyl)-6,6-dimethyl-3-[1-(trimethylsilyl)cyclobutanecarboxamido]-4,6-dihydropyrrolo[3,4-c]pyrazole-5(1H)-carboxamide] | ≥ 1000 | – | ≤ 100 | ≤ 100 |
| Cc1cccc(Cl)c1NC(=O)N1Cc2c(NC(=O)C3([Si](C)(C)C)CCC3)n[nH]c2C1(C)C [IV-215, N-(2-Chloro-6-methylphenyl)-6,6-dimethyl-3-[1-(trimethylsilyl)cyclobutanecarboxamido]-4,6-dihydropyrrolo[3,4-c]pyrazole-5 (1H)-carboxamide] | ≥ 1000 | < 300 | ≤ 100 | ≤ 100 |
| COc1cccc(Cl)c1NC(=O)N1Cc2c(NC(=O)C3([Si](C)(C)C)CCC3)n[nH]c2C1(C)C [IV-247, N-(2-Chloro-6-methoxyphenyl)-6,6-dimethyl-3-[1-(trimethylsilyl)cyclobutanecarboxamido]-4,6-dihydropyrrolo[3,4-c]pyrazole-5(1H)-carboxamide] | ≥ 1000 | – | ≤ 100 | ≤ 100 |
| Cc1cccc(Br)c1NC(=O)N1Cc2c(NC(=O)C3([Si](C)(C)C)CCC3)n[nH]c2C1(C)C [IV-299, N-(2-Bromo-6-methylphenyl)-6,6-dimethyl-3-[1-(trimethylsilyl)cyclobutanecarboxamido]-4,6-dihydropyrrolo[3,4-c]pyrazole-5 (1H)-carboxamide] | ≥ 1000 | < 300 | ≤ 100 | ≤ 100 |
| Cc1cc(F)ccc1NC(=O)N1Cc2c(NC(=O)C3([Si](C)(C)C)CCC3)n[nH]c2C1(C)C [IV-359, N-(4-Fluoro-2-methylphenyl)-6,6-dimethyl-3-[1-(trimethylsilyl)cyclobutanecarboxamido]-4,6-dihydropyrrolo[3,4-c]pyrazole-5 (1H)-carboxamide] | ≥ 1000 | – | ≤ 100 | – |
| Cc1ccc(F)cc1NC(=O)N1Cc2c(NC(=O)C3([Si](C)(C)C)CCC3)n[nH]c2C1(C)C [IV-361, N-(5-Fluoro-2-methylphenyl)-6,6-dimethyl-3-[1-(trimethylsilyl)cyclobutanecarboxamido]-4,6-dihydropyrrolo[3,4-c]pyrazole-5 (1H)-carboxamide] | ≥ 1000 | < 300 | ≤ 100 | ≤ 100 |
| Cc1ccc(C)c(NC(=O)N2Cc3c(NC(=O)C4([Si](C)(C)C)CCC4)n[nH]c3C2(C)C)c1 [IV-379, N-(2,5-Dimethylphenyl)-6,6-dimethyl-3-[1-(trimethylsilyl)cyclobutanecarboxamido]-4,6-dihydropyrrolo[3,4-c]pyrazole-5(1H)-carboxamide] | ≥ 1000 | < 300 | ≤ 100 | ≤ 100 |
| CCc1cccc(C)c1NC(=O)N1Cc2c(NC(=O)C3([Si](C)(C)C)CCC3)n[nH]c2C1(C)C [IV-389, N-(2-Ethyl-6-methylphenyl)-6,6-dimethyl-3-[1-(trimethylsilyl)cyclobutanecarboxamido]-4,6-dihydropyrrolo[3,4-c]pyrazole-5 (1H)-carboxamide] | ≥ 1000 | – | ≤ 100 | ≤ 100 |
| CC1(C)c2[nH]nc(NC(=O)C3([Si](C)(C)C)CCC3)c2CN1C(=O)Nc1c(F)ccc(F)c1F [IV-597, 6,6-Dimethyl-N-(2,3,6-trifluorophenyl)-3-[1-(trimethylsilyl)cyclobutanecarboxamido]-4,6-dihydropyrrolo[3,4-c]pyrazole-5(1H)-carboxamide] | ≥ 1000 | – | ≤ 100 | – |
| Cc1ccc(C)c(NC(=O)N2Cc3c(NC(=O)C4([Si](C)(C)C)CCC4)n[nH]c3C2(C)C)c1F [IV-669, N-(2-Fluoro-3,6-dimethylphenyl)-6,6-dimethyl-3-[1-(trimethylsilyl)cyclobutanecarboxamido]-4,6-dihydropyrrolo[3,4-c]pyrazole-5(1H)-carboxamide] | ≥ 1000 | < 300 | ≤ 100 | ≤ 100 |
| CC1(C)c2[nH]nc(NC(=O)C3([Si](C)(C)C)CCC3)c2CN1C(=O)Nc1c(F)ccc2ccoc12 [IV-1049, N-(6-Fluorobenzofuran-7-yl)-6,6-dimethyl-3-[1-(trimethylsilyl)cyclobutanecarboxamido]-4,6-dihydropyrrolo[3,4-c]pyrazole-5 (1H)-carboxamide] | ≥ 1000 | < 300 | ≤ 100 | ≤ 100 |
| CC1(C)c2[nH]nc(NC(=O)C3([Si](C)(C)C)CCC3)c2CN1C(=O)Nc1c(F)ccc2cc(Cl)oc12 [IV-1063, N-(2-Chloro-6-fluorobenzofuran-7-yl)-6,6-dimethyl-3-[1-(trimethylsilyl)cyclobutanecarboxamido]-4,6-dihydropyrrolo[3,4-c]pyrazole-5(1H)-carboxamide] | ≥ 1000 | – | ≤ 100 | – |

Second part, the molecule after the results:

| Ki (CDK2) [nM] | GI50 [1, 2] [nM] | GI50 [1, 3] [nM] | IC50 (IL-17 production) [nM] | SMILES |
| --- | --- | --- | --- | --- |
| ≥ 1000 | < 300 | ≤ 100 | ≤ 100 | CC1(C)c2[nH]nc(NC(=O)C3([Si](C)(C)C)CCC3)c2CN1C(=O)Nc1ccccc1F [IV-3, N-(2-Fluorophenyl)-6,6-dimethyl-3-[1-(trimethylsilyl)cyclobutanecarboxamido]-4,6-dihydropyrrolo[3,4-c]pyrazole-5(1H)-carboxamide] |
| ≥ 1000 | – | ≤ 100 | – | CC1(C)c2[nH]nc(NC(=O)C3([Si](C)(C)C)CCC3)c2CN1C(=O)Nc1ccccc1Br [IV-15, N-(2-Bromophenyl)-6,6-dimethyl-3-[1-(trimethylsilyl)cyclobutanecarboxamido]-4,6-dihydropyrrolo[3,4-c]pyrazole-5(1H)-carboxamide] |
| ≥ 1000 | – | ≤ 100 | – | Cc1ccccc1NC(=O)N1Cc2c(NC(=O)C3([Si](C)(C)C)CCC3)n[nH]c2C1(C)C [IV-21, 6,6-Dimethyl-N-(o-tolyl)-3-[1-(trimethylsilyl)cyclobutanecarboxamido]-4,6-dihydropyrrolo[3,4-c]pyrazole-5(1H)-carboxamide] |
| ≥ 1000 | – | ≤ 100 | – | Cc1ccc(F)c(NC(=O)N2Cc3c(NC(=O)C4([Si](C)(C)C)CCC4)n[nH]c3C2(C)C)c1 [IV-127, N-(2-Fluoro-5-methylphenyl)-6,6-dimethyl-3-[1-(trimethylsilyl)cyclobutanecarboxamido]-4,6-dihydropyrrolo[3,4-c]pyrazole-5 (1H)-carboxamide] |
| ≥ 1000 | – | ≤ 100 | ≤ 100 | Cc1cccc(F)c1NC(=O)N1Cc2c(NC(=O)C3([Si](C)(C)C)CCC3)n[nH]c2C1(C)C [IV-129, N-(2-Fluoro-6-methylphenyl)-6,6-dimethyl-3-[1-(trimethylsilyl)cyclobutanecarboxamido]-4,6-dihydropyrrolo[3,4-c]pyrazole-5 (1H)-carboxamide] |
| ≥ 1000 | – | ≤ 100 | ≤ 100 | CCc1cccc(F)c1NC(=O)N1Cc2c(NC(=O)C3([Si](C)(C)C)CCC3)n[nH]c2C1(C)C [IV-137, N-(2-Ethyl-6-fluorophenyl)-6,6-dimethyl-3-[1-(trimethylsilyl)cyclobutanecarboxamido]-4,6-dihydropyrrolo[3,4-c]pyrazole-5(1H)-carboxamide] |
| ≥ 1000 | – | ≤ 100 | – | COc1cccc(F)c1NC(=O)N1Cc2c(NC(=O)C3([Si](C)(C)C)CCC3)n[nH]c2C1(C)C [IV-161, N-(2-Fluoro-6-methoxyphenyl)-6,6-dimethyl-3-[1-(trimethylsilyl)cyclobutanecarboxamido]-4,6-dihydropyrrolo[3,4-c]pyrazole-5(1H)-carboxamide] |
